According to PubChem BioAssay AID248 (DTP/NCI, 2004):
Values joined by “and” are separate entries in the source; they are usually repeats but may differ in a detail not shown here. Equal entries are not always repeated. Inconclusive results and toxic doses are left out. No stated cut-off is given here; in the data, active means T/C of 150% or more; inactive means T/C below 125%.

Test system: L1210 leukemia ip in BDF1 mice, survival T/C
Experiment: NCI In Vivo Anticancer Drug Screen. Data for tumor model L1210 Leukemia (intraperitoneal) in B6D2F1 (BDF1) mice
Details: higher = longer survival
Outline: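 Transplanted-tumor mice were given test agent; controls received vehicle only. Survival readings from the two groups were divided (treated over control).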

[1] = endpoint: mean survival time, dose: 100.0 mg/kg/injection, schedule: Q01DX009 (ip), vehicle: saline with Tween-80
[2] = endpoint: mean survival time, dose: 200.0 mg/kg/injection, schedule: Q01DX009 (ip), vehicle: saline with Tween-80
[3] = endpoint: mean survival time, dose: 400.0 mg/kg/injection, schedule: Q01DX009 (ip), vehicle: saline with Tween-80
[4] = endpoint: mean survival time, dose: 75.0 mg/kg/injection, schedule: Q01DX001 (ip), vehicle: saline
[5] = endpoint: mean survival time, dose: 150.0 mg/kg/injection, schedule: Q01DX001 (ip), vehicle: saline
[6] = endpoint: mean survival time, dose: 100.0 mg/kg/injection, schedule: Q04DX003 (ip), vehicle: Klucel (hydroxypropylcellulose) (HPC)
[7] = endpoint: mean survival time, dose: 200.0 mg/kg/injection, schedule: Q04DX003 (ip), vehicle: Klucel (hydroxypropylcellulose) (HPC)
[8] = endpoint: mean survival time, dose: 100.0 mg/kg/injection, schedule: Q04DX002 (ip), vehicle: saline
[9] = endpoint: mean survival time, dose: 200.0 mg/kg/injection, schedule: Q04DX002 (ip), vehicle: saline
[10] = endpoint: mean survival time, dose: 400.0 mg/kg/injection, schedule: Q04DX002 (ip), vehicle: saline
[11] = endpoint: mean survival time, dose: 100.0 mg/kg/injection, schedule: Q04DX003 (ip), vehicle: saline
[12] = endpoint: mean survival time, dose: 200.0 mg/kg/injection, schedule: Q04DX003 (ip), vehicle: saline
[13] = endpoint: mean survival time, dose: 400.0 mg/kg/injection, schedule: Q04DX003 (ip), vehicle: saline
[14] = endpoint: mean survival time, dose: 100.0 mg/kg/injection, schedule: Q04DX003 (ip), vehicle: saline with Tween-80
[15] = endpoint: mean survival time, dose: 400.0 mg/kg/injection, schedule: Q04DX003 (ip), vehicle: saline with Tween-80
[16] = endpoint: mean survival time, dose: 100.0 mg/kg/injection, schedule: Q01DX009 (ip), vehicle: Klucel (hydroxypropylcellulose) (HPC)
[17] = endpoint: mean survival time, dose: 100.0 mg/kg/injection, schedule: Q04DX002 (ip), vehicle: saline with Tween-80
[18] = endpoint: mean survival time, dose: 200.0 mg/kg/injection, schedule: Q01DX009 (ip), vehicle: Klucel (hydroxypropylcellulose) (HPC)
[19] = endpoint: mean survival time, dose: 200.0 mg/kg/injection, schedule: Q04DX002 (ip), vehicle: saline with Tween-80
[20] = endpoint: mean survival time, dose: 400.0 mg/kg/injection, schedule: Q04DX002 (ip), vehicle: saline with Tween-80
[21] = endpoint: mean survival time, dose: 100.0 mg/kg/injection, schedule: Q04DX002 (ip), vehicle: Klucel (hydroxypropylcellulose) (HPC)
[22] = endpoint: mean survival time, dose: 200.0 mg/kg/injection, schedule: Q04DX002 (ip), vehicle: Klucel (hydroxypropylcellulose) (HPC)
[23] = endpoint: mean survival time, dose: 400.0 mg/kg/injection, schedule: Q04DX003 (ip), vehicle: Klucel (hydroxypropylcellulose) (HPC)

Measured: T/C

O=C(OC/C=C/c1ccccc1)c1ccccc1
inactive: endpoint: mean survival time, dose: 50.0 mg/kg/injection, schedule: Q01DX009 (ip), vehicle: saline with Tween-80 97 % of control | [1] 91 % of control | [2] 91 % of control

CCOP(=S)(OCC)Oc1cccc(NC(=O)CC)c1
inactive: [1] 102 % of control | [2] 104 % of control | [3] 93 % of control

C=CCC1(CCCCC)C(=O)NC(=S)NC1=O
inactive: [4] 100 % of control | [5] 100 % of control

CC(=O)c1cc(C)ccc1O
inactive: [6] 93 % of control | [7] 92 % of control

O=C(CCl)NCCCC1CCCCC1
inactive: endpoint: mean survival time, dose: 12.5 mg/kg/injection, schedule: Q04DX002 (ip), vehicle: saline 100 % of control | endpoint: mean survival time, dose: 25.0 mg/kg/injection, schedule: Q04DX002 (ip), vehicle: saline 96 % of control | endpoint: mean survival time, dose: 50.0 mg/kg/injection, schedule: Q04DX002 (ip), vehicle: saline 104 % of control

Clc1ccccc1C(N1CCCCC1)N1CCCCC1
inactive: [8] 88 % of control | [9] 92 % of control | [10] 95 % of control

Clc1ccc(CI)cc1
inactive: endpoint: mean survival time, dose: 25.0 mg/kg/injection, schedule: Q04DX003 (ip), vehicle: alcohol 106 % of control | endpoint: mean survival time, dose: 50.0 mg/kg/injection, schedule: Q04DX003 (ip), vehicle: alcohol 98 % of control | endpoint: mean survival time, dose: 100.0 mg/kg/injection, schedule: Q04DX003 (ip), vehicle: alcohol 98 % of control

CC(=O)Nc1ccc2c(c1)/C(=N/O)c1ccccc1-2
inactive: [11] 97 % of control | [12] 89 % of control | [13] 94 % of control

Cc1ncc2c(=O)n(-c3ccc([N+](=O)[O-])cc3)[nH]c2n1
inactive: [14] 108 % of control | endpoint: mean survival time, dose: 200.0 mg/kg/injection, schedule: Q04DX003 (ip), vehicle: saline with Tween-80 100 % of control | [15] 108 % of control

C/C=N/N(C)C=O
inactive: [11] 104 % of control | [12] 119 % of control

O=C1C2C3CCC(O3)C2C(=O)N1CCO (centres undefined)
inactive: [8] 109 % of control | [9] 106 % of control | [10] 98 % of control

CCOC(=O)c1[nH]c(C)c(C(=O)OCC)c1C
inactive: endpoint: mean survival time, dose: 50.0 mg/kg/injection, schedule: Q01DX009 (ip), vehicle: Klucel (hydroxypropylcellulose) (HPC) 95 % of control | [16] 95 % of control | [17] 99 % of control | [18] 103 % of control | [19] 102 % of control | [20] 102 % of control | endpoint: median survival time, dose: 10.0 mg/kg/injection, schedule: Q04DX002 (ip), vehicle: Klucel (hydroxypropylcellulose) (HPC) 100 % of control | endpoint: median survival time, dose: 200.0 mg/kg/injection, schedule: Q04DX002 (ip), vehicle: Klucel (hydroxypropylcellulose) (HPC) 89 % of control | endpoint: median survival time, dose: 400.0 mg/kg/injection, schedule: Q04DX002 (ip), vehicle: Klucel (hydroxypropylcellulose) (HPC) 107 % of control

NNC(=O)CNc1ccccc1Cl
inactive: [21] 112 % of control | [22] 108 % of control

CC(C)C(C)(C)NC(N)=O
inactive: endpoint: mean survival time, dose: 100.0 mg/kg/injection, schedule: Q01DX001 (ip), vehicle: saline 102 % of control | endpoint: mean survival time, dose: 200.0 mg/kg/injection, schedule: Q01DX001 (ip), vehicle: saline 104 % of control | endpoint: mean survival time, dose: 400.0 mg/kg/injection, schedule: Q01DX001 (ip), vehicle: saline 104 % of control

CC(=O)Nc1ccc(NC(=O)Nc2cc(C)ccc2C)cc1
inactive: endpoint: mean survival time, dose: 25.0 mg/kg/injection, schedule: Q04DX003 (ip), vehicle: saline with Tween-80 91 % of control | endpoint: mean survival time, dose: 50.0 mg/kg/injection, schedule: Q04DX003 (ip), vehicle: saline with Tween-80 89 % of control | endpoint: mean survival time, dose: 100.0 mg/kg/injection, schedule: Q01DX001 (ip), vehicle: saline with Tween-80 91 % of control | [1] 92 % of control and 86 % of control | [17] 90 % of control and 91 % of control | [14] 91 % of control | endpoint: mean survival time, dose: 200.0 mg/kg/injection, schedule: Q01DX001 (ip), vehicle: saline with Tween-80 89 % of control | [2] 99 % of control and 91 % of control | [19] 87 % of control and 90 % of control | endpoint: mean survival time, dose: 400.0 mg/kg/injection, schedule: Q01DX001 (ip), vehicle: saline with Tween-80 89 % of control | [3] 92 % of control and 100 % of control | [20] 89 % of control and 91 % of control | [15] 87 % of control

O=C1C(Cl)=C(Cl)C2(Cl)C1(Cl)C1(Cl)C(=O)C(Cl)=C(Cl)C12Cl (centres undefined)
inactive: endpoint: mean survival time, dose: 100.0 mg/kg/injection, schedule: Q01DX001 (ip), vehicle: Klucel (hydroxypropylcellulose) (HPC) 99 % of control | [6] 104 % of control | endpoint: mean survival time, dose: 200.0 mg/kg/injection, schedule: Q01DX001 (ip), vehicle: Klucel (hydroxypropylcellulose) (HPC) 97 % of control | [7] 98 % of control | endpoint: mean survival time, dose: 400.0 mg/kg/injection, schedule: Q01DX001 (ip), vehicle: Klucel (hydroxypropylcellulose) (HPC) 94 % of control | [23] 96 % of control

O=[N+]([O-])c1ccc(O)c(/C=N\NC(=S)Nc2ccc3cn[nH]c3c2)c1
inactive: endpoint: mean survival time, dose: 50.0 mg/kg/injection, schedule: Q01DX001 (ip), vehicle: carboxymethylcellulose (CMC) 97 % of control | endpoint: mean survival time, dose: 100.0 mg/kg/injection, schedule: Q01DX001 (ip), vehicle: carboxymethylcellulose (CMC) 103 % of control | endpoint: mean survival time, dose: 200.0 mg/kg/injection, schedule: Q01DX001 (ip), vehicle: carboxymethylcellulose (CMC) 93 % of control | endpoint: mean survival time, dose: 400.0 mg/kg/injection, schedule: Q01DX001 (ip), vehicle: carboxymethylcellulose (CMC) 97 % of control

O=CNNC(=O)c1cnccn1
inactive: endpoint: mean survival time, dose: 100.0 mg/kg/injection, schedule: Q01DX009 (ip), vehicle: saline 104 % of control | [11] 103 % of control | endpoint: mean survival time, dose: 177.0 mg/kg/injection, schedule: Q01DX009 (ip), vehicle: saline 117 % of control | endpoint: mean survival time, dose: 200.0 mg/kg/injection, schedule: Q01DX009 (ip), vehicle: saline 115 % of control | [12] 97 % of control | endpoint: mean survival time, dose: 266.0 mg/kg/injection, schedule: Q01DX009 (ip), vehicle: saline 114 % of control | [13] 120 % of control

C=COC(=O)NC(C(=O)O)C(C)CC (centres undefined)
inactive: [4] 111 % of control | [5] 103 % of control

CC1CC2C(CC1=O)C(C)(C)CCC2(C)C (centres undefined)
inactive: [16] 92 % of control | [18] 94 % of control | [7] 107 % of control | endpoint: mean survival time, dose: 400.0 mg/kg/injection, schedule: Q01DX009 (ip), vehicle: Klucel (hydroxypropylcellulose) (HPC) 90 % of control | [23] 91 % of control

O=C1CCCCCCCCCCCCCCCO1
inactive: [21] 90 % of control | [22] 93 % of control | endpoint: mean survival time, dose: 400.0 mg/kg/injection, schedule: Q04DX002 (ip), vehicle: Klucel (hydroxypropylcellulose) (HPC) 93 % of control
